Activity calls are given as the source filed them.
Tests used:
[1] = molecular target: Bifunctional protein GlmU (Mycobacterium tuberculosis, UniProt P9WMN3); test: Inhibitors of Mycobacterial Glucosamine-1-phosphate acetyl transferase (GlmU). Secondary screen.; set-up: species or system Mycobacterium tuberculosis H37Rv
[2] = molecular target: T1, Alkaline phosphatase, tissue-nonspecific isozyme (Homo sapiens, UniProt P05186); test: activation of tissue-nonspecific alkaline phosphatase – biochemical, TNAP isozyme, mouse IAP uHTS hits, selectivity assay for mouse IAP activator project, dose response (AID 488880); assay type: functional
T1 sequence (P05186 whole entry): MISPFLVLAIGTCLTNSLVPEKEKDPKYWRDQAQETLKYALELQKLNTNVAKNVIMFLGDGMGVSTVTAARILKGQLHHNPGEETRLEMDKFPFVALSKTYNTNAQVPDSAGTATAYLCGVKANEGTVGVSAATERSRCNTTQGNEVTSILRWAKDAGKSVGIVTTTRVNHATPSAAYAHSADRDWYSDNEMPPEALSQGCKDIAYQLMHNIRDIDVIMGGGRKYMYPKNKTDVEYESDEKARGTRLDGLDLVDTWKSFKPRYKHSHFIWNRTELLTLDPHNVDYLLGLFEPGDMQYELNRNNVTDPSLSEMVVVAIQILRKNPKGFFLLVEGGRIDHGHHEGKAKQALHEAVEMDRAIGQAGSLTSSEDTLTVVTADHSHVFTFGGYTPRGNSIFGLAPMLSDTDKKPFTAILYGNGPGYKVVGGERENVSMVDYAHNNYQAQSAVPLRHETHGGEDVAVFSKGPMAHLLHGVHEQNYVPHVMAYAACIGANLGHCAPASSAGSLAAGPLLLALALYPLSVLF

Keap1/Nrf2 = Keap1/Nrf2 (Homo sapiens, UniProt Q14145); test: disruptors of Keap1 binding to Nrf2 peptide – biochemical, fluorescence polarization, cherry-picked samples, dose response (AID 588683)
[3] = molecular target: Intestinal-type alkaline phosphatase (Mus musculus, UniProt P24822); test: mouse intestinal alkaline phosphatase activators, dose response, biochemical, luminescence, uHTS hits (AID 488783); assay type: functional
Large T antigen = Large T antigen (Simian virus 40, UniProt P03070); assay type: functional, Betapolyomavirus macacae;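 note: Confirmatory-stage PubChem screen for compounds that inhibit SV40 T antigen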
[4] = molecular target: Intestinal-type alkaline phosphatase (Homo sapiens, UniProt P09923); test: activation of human intestinal alkaline phosphatase – biochemical, dose response (AID 488873); assay type: functional
Troponin, cardiac muscle = Troponin, cardiac muscle (Homo sapiens, UniProt P19429+P45379+P63316); test: Fluorescence-based biochemical high throughput dose response assay for activators of the calcium sensitivity of cardiac Regulated Thin Filaments (RTF). [Related pubchem assays (depositor defined):AID493008, AID493018, AID504382, AID504383]; assay type: protein-complex assay
H4 = test: Luminescence Cell-Based Dose Response HTS to Identify Activators of 5'UTR Stem-Loop Driven Prion Protein mRNA Translation in H4 Neuroglioblastoma Cells. [Related pubchem assays: 1829 (Project Summary), 1814 (Primary HTS)]; assay type: functional; conditions: Homo sapiens
[5] = molecular target: Potassium voltage-gated channel subfamily KQT member 2 (Rattus norvegicus, UniProt O88943); test: rat KCNQ2 current potentiators – automated patch clamp, KCNQ2-CHO cells, SAR follow-up (AID 493113); assay type: functional
[6] = Luminescence Cell-Based Dose Response HTS to Identify Activators of Luciferase Translation or Activity in H4 […] Cells. [Related pubchem assays: 1829 (Project Summary), 1814 (Primary HTS)]; assay type: functional
[7] = molecular target: T2, Dual specificity protein phosphatase 6 (Rattus norvegicus, UniProt Q64346); assay type: functional;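 note: confirmatory in vitro dose-response testing of MKP-3 inhibition; recombinant His-tagged MKP-3 made in E. coli BL21 with OMFP substrate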
T2 sequence (Q64346 whole entry): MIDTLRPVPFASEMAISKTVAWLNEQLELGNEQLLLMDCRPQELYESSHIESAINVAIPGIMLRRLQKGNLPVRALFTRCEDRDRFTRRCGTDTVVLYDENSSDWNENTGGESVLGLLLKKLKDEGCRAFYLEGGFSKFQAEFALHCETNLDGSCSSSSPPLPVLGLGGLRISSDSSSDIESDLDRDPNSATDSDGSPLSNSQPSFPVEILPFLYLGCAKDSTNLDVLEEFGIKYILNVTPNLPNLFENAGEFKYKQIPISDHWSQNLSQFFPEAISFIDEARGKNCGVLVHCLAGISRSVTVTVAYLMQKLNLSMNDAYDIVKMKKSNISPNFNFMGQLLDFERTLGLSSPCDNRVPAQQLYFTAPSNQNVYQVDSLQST

[8] = molecular target: T3, Apoptotic protease-activating factor 1 (Homo sapiens, UniProt O14727); test: activation of Apaf-1 mediated apoptosis – fluorescent, uHTS hits, dose response (AID 588554); assay type: functional
T3 sequence (O14727 whole entry): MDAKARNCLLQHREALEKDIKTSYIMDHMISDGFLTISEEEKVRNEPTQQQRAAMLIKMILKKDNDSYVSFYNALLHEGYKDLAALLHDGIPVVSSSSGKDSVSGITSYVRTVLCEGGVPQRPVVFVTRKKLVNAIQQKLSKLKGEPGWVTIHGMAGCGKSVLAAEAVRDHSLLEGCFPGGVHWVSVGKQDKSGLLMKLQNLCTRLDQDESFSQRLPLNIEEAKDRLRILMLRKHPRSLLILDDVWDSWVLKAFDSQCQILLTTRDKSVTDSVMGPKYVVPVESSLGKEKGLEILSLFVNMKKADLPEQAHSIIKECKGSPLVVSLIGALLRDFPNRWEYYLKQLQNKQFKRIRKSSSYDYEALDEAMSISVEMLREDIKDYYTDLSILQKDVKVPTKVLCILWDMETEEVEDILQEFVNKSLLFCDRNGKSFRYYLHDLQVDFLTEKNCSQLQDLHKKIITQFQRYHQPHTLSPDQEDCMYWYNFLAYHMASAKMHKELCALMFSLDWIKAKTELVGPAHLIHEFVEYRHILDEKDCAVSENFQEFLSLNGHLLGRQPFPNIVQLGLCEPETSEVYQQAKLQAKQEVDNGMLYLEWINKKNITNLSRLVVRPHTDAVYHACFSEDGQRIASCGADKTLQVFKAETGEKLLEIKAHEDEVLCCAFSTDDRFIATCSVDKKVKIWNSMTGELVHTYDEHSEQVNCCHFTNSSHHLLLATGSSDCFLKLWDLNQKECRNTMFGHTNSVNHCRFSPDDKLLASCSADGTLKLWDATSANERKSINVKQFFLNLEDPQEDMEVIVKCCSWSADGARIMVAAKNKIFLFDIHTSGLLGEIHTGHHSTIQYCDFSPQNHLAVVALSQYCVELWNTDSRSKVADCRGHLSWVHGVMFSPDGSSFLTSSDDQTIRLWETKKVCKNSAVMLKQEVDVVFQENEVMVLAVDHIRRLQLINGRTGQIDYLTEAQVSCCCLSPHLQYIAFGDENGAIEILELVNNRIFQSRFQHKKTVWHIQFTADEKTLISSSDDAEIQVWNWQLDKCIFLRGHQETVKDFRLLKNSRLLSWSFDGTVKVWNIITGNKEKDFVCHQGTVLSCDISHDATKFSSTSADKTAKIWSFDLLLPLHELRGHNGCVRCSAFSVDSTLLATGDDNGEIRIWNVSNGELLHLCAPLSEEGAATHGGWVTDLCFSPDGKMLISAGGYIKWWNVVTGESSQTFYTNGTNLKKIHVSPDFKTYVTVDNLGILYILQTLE

[9] = molecular target: T4, Tyrosine-protein phosphatase non-receptor type 22 (Homo sapiens, UniProt Q9Y2R2); test: inhibition of lymphoid tyrosine phosphatase LYP – biochemical, pCAP fluorogenic substrate, fluorescence, set 3, SAR follow-up (AID 449727); assay type: functional
T4 sequence (Q9Y2R2 whole entry): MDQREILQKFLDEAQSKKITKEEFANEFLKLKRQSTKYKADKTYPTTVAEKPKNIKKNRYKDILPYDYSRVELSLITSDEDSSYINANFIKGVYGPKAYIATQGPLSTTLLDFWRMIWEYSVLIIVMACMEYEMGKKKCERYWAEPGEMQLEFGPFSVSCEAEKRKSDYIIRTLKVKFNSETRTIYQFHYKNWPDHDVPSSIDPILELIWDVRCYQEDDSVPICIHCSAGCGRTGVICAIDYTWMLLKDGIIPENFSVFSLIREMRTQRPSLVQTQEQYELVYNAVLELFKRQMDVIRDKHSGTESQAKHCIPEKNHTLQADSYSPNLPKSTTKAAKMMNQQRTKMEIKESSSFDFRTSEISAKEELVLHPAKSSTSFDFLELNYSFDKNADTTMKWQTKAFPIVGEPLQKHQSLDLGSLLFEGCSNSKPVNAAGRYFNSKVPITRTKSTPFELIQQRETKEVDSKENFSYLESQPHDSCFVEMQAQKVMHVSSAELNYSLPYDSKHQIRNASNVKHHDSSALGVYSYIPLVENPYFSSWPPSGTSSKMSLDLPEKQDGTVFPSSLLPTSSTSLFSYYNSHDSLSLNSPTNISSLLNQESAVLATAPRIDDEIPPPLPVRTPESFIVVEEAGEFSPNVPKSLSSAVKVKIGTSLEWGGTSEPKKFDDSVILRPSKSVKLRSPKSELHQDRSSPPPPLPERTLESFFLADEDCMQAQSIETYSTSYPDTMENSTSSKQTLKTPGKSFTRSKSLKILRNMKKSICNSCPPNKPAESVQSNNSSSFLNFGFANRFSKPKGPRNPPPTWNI

[10] = molecular target: T5, Dual specificity protein phosphatase 3 (Homo sapiens, UniProt P51452); test: VHR1 phosphatase inhibitors, biochemical (AID 1878)
[11] = molecular target: T5, Dual specificity protein phosphatase 3; test: SAR VHR1 Fluorescent Assay for In Vitro dose response studies. [Related pubchem assays (depositor defined):AID1654, AID1661, AID1878, AID1992, AID2004, AID2070, AID2085]; assay type: functional
[12] = molecular target: T5, Dual specificity protein phosphatase 3; test: VHR1 phosphatase inhibitors, primary screen, biochemical, absorbance, uHTS (AID 1654)
[13] = molecular target: T4, Tyrosine-protein phosphatase non-receptor type 22; test: SAR LYP1 Fluorescent Assay using OMFP substrate for In Vitro dose response studies - Set 3. [Related pubchem assays (depositor defined):AID1779, AID1784, AID2140, AID2686]; assay type: functional
[14] = molecular target: T2, Dual specificity protein phosphatase 6; test: inhibition of rat DUSP6 enzyme activity – biochemical, in vitro, primary screen (AID 425)
[15] = molecular target: Tyrosine-protein phosphatase non-receptor type 12 (Homo sapiens, UniProt Q05209); test: SAR Selectivity Analysis of small molecule inhibitors of PEST using pCAP in a fluorescence assay. [Related pubchem assays (depositor defined):AID1779, AID1784, AID2135]; assay type: functional
[16] = molecular target: T6, Tyrosine-protein phosphatase non-receptor type 7 (Homo sapiens, UniProt P35236); test: redox-active compounds inhibiting HePTP phosphatase – biochemical, fluorescence, mechanism study (AID 2068); assay type: functional
T6 sequence (P35236 whole entry): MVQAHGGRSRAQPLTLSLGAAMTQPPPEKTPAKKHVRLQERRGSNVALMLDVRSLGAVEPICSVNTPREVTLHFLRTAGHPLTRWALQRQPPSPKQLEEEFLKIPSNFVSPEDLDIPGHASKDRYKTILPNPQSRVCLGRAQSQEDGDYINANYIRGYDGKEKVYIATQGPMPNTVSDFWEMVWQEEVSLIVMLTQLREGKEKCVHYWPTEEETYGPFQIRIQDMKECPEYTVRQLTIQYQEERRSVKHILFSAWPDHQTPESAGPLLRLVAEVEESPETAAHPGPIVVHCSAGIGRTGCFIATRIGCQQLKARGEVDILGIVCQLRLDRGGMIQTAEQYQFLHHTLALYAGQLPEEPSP

Genome polyprotein = Genome polyprotein (dengue virus type 2, UniProt P29990); test: flavivirus cap methylation enzyme inhibition – biochemical, confirmation dose response, primary screen (AID 588689); assay type: functional
[17] = molecular target: T5, Dual specificity protein phosphatase 3; test: SAR VHR1 absorbance Assay for In Vitro dose response studies. [Related pubchem assays (depositor defined):AID1654, AID1661, AID1878, AID1992, AID2004]
[18] = molecular target: Cyclin-dependent kinase 5/CDK5 activator 1 (Homo sapiens, UniProt Q00535); test: blockade of human CDK5 activity – biochemical, cherry-picked samples, set 2, dose response (AID 504545)
[19] = HEK-293T viability loss, compound-treated – cell-based, uHTS hits, cytotoxicity control for B/T-cell NF-kB inhibitor project, dose response (AID 489019); assay type: functional;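 note: IC50 reflects cytotoxicity as loss of cell viability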
Jurkat = test: blockers of NF-kB activation in T cells – Jurkat, luciferase reporter, luminescence, B- and T-cell, dose response (AID 489004); assay type: functional, cell-based; conditions: Homo sapiens;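 note: NF-kB luciferase reporter Jurkat cells stimulated with PMA plus ionomycin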
[20] = molecular target: T5, Dual specificity protein phosphatase 3; test: SAR VHR1 Fluorescent Assay for In Vitro dose response studies Set 3. [Related pubchem assays (depositor defined):AID1654, AID1661, AID1878]; assay type: functional

Cc1ccc(/C=C2/SC(=O)NC2=S)o1
inactive: AC50 (Keap1/Nrf2) > 52 µM | EC50 (Troponin, cardiac muscle) 17.9 µM
active: IC50 [1] 170 µM | EC50 [2] 45.5 µM | EC50 [3] 21.8 µM | IC50 (Large T antigen) > 100 µM | EC50 [4] 41.4 µM

CC(C)c1ccc(NC(=O)C2CC3CCC2C3)cc1 (stereo unspecified)
active: EC50 (H4) 65.4 µM | EC50 [5] 0.72 µM | EC50 [6] 0.432 µM

CCc1ccc(NC2=NC(=O)/C(=C/c3cc(Br)c(OCC(=O)O)c(OC)c3)S2)cc1
active: IC50 [7] 44.9 µM | EC50 [8] 15.8 µM | IC50 [9] 6.74 µM | IC50 [10] 3.93 µM | IC50 [11] 0.878 µM | IC50 [12] 10.5 µM | IC50 [13] 10.3 µM | IC50 [14] 84.5 µM | IC50 [15] 2.78 µM | IC50 [16] 0.28 µM | IC50 (Genome polyprotein) 39.5 µM | IC50 [17] 3.62 µM

C=CC(=O)Nc1ccc(Nc2nc(N[C@H]3CC[C@H](N(C)C)CC3)nc3c2ncn3C(C)C)cc1
active: AC50 [18] 1.48 µM | IC50 (Jurkat) 0.17 µM
inactive: IC50 [19] > 80 µM

Cc1cc(Cl)cc2sc(N(Cc3cccnc3)C(=O)c3cccc(N4C(=O)CCC4=O)c3)nc12
active: IC50 [20] 58.2 µM
